Experiment: Safety and tolerability (adverse events, laboratory, vital signs, ECG) in phase 1a trial in healthy subjects
Format: in vivo, human
Procedure: The primary objective was to assess the safety and tolerability of single (SAD) and multiple (MAD) ascending doses of anle138b to healthy subjects in the fasted state and to assess the safety and tolerability of single doses of anle138b in both the fasted and fed state (FES). To this end, adverse events (AEs), clinical laboratory tests, vital signs, electrocardiograms (ECGs), QT interval corrected for heart rate using Fridericia's formula (QTcF), and physical examination findings were recorded. Participants were instructed to report all potential AEs immediately to the on-site personnel and were assessed by a physician before each dose of study drug. In addition, a physical examination of the relevant body system was performed in the event that a subject reports any new symptoms or AEs. AEs were defined following standard criteria, which are described in the protocol. The detailed parameters and sampling schedule regarding haematology, clinical chemistry, ECG, blood pressure, heart rate and PK are provided in the supplement (supplement 3). Any clinically significant abnormality in these assessments, including changes from baseline, were needed to be reported as an AE.
AEs and medications were coded using the Medical Dictionary for Regulatory Activities (MedDRA) (v22·1). An independent coding review was performed within the Data Sciences department. Clinical chemistry and haematology data (and other safety laboratory data) were collected by a central laboratory (The Doctors Laboratory) and transferred electronically to Quotient Sciences. The list of parameters is provided in supplement 2. All demographic details and sample dates were cross-referenced with the corresponding data on the study database. Data was monitored by an external entity (Wirral Clinical Consultancy Ltd, Heswall, UK). Monitoring included the conduct of a site initiation visit, interim monitoring visits and a close-out visit. The database was closed after all queries had been resolved.
The study was exploratory and no formal sample size calculation was made. Based on experience from previous studies of similar design, eight subjects per cohort were enrolled for parts 1 (SAD) and 2 (MAD) and a total of twelve subjects for part 3 (FES). Populations and analysis sets were determined for safety and PK data after database lock using the criteria defined in the reporting and analysis plan. The safety population and safety analysis set for SAD and MAD were defined after database lock but prior to study unblinding. Statistical analysis and production of summary tables, figures and listings for all safety data (AEs, vital signs, ECGs and safety laboratory assessments) including changes from baseline as required in this study were performed using the statistical package SAS (v9·4). Additional statistics was provided for PK-related data including coefficient of variation (CV%), geometric mean, geometric CV%, and the number n of subjects that were included in the natural logarithmic transformation). In SAD and MAD, dose proportionality was assessed. Formal statistical analysis was performed on the log-transformed PK parameters AUC(0-last), AUC(0-inf), and Cmax for SAD (day 1), and AUC(0-tau) and Cmax for MAD (day 1 and day 7) to assess dose proportionality using the following power model: loge (AUC or Cmax) = µ + βx loge (dose). The estimate obtained for β is a measure of dose proportionality. The estimate of β together with its 90% confidence interval (CI) (βl, βu) was used to quantify the degree of non-proportionality. In MAD, formal statistical analysis was performed on the PK parameters AUC(0-tau) and Cmax to assess dose accumulation. Log-transformed AUC(0-tau) and Cmax was subjected to a mixed-effects model with treatment (dose level), day (day 1 or 7) and treatment-by-day interaction as fixed effects and subject as a random effect. […]

[1] = Food effect cohort, anle138b 150 mg fed and fasted, N=12
[2] = MAD cohorts, anle138b 100-300 mg QD 7 days, N=18
[3] = SAD cohorts, anle138b 50-300 mg single dose, N=24

For `Brc1cccc(-c2cc(-c3ccc4c(c3)OCO4)n[nH]2)c1` [anle138b, 3-(1,3-benzodioxol-5-yl)-5-(3-bromophenyl)-1H-pyrazole], the “Dose dependency of AE reporting” value (50 to 300 mg) was “no dose dependency”, the “Adverse events by attribution to study treatment: Definite, number of events” value (“Adverse events … Definite, number of events” for short) (Food effect cohort, N=12) was 0 and the “Adverse events by attribution to study treatment: Not related, number of events (%)” value (Food effect cohort, N=12) was 6 (100). For the same compound, the “Adverse events by attribution to study treatment: Possible, number of events (%)” value (from here on “Adverse events … Possible, number of events (%)”) (Food effect cohort, N=12) was 0, the “Adverse events by attribution to study treatment: Probable, number of events” value (from here on “Adverse events … Probable, number of events”) (Food effect cohort, N=12) was 0 and the “Adverse events by grade: Mild, number of events (%)” value (from here on “Adverse events by grade: Mild … (%)”) (Food effect cohort, N=12) was 6 (100). For the same compound, the “Adverse events by grade: Moderate, number of events (%)” value (Food effect cohort, N=12) was 0, the “Adverse events by outcome: Recovered, number of events (%)” value (“Adverse events by outcome … (%)” below) (Food effect cohort, N=12) was 6 (100) and the “Eye disorders (ocular hyperaemia, vision blurred): number of events [patients affected %]” value (“Eye disorders … [patients affected %]” for short) (Food effect cohort, N=12) was 0. For the same compound, the “Gastrointestinal disorders (diarrhea, nausea): number of events [patients affected %]” value (Food effect cohort, N=12) was 0, the “General disorders and administration site conditions (Chest discomfort, fatigue, medical device site reaction): number of events [patients affected %]” value (Food effect cohort, N=12) was 1 [8·3] and the “Infections and infestations (Nasopharyngitis, rhinitis): number of events [patients affected %]” value (Food effect cohort, N=12) was 0. The “Injury, poisoning and procedural complications (procedural dizziness): number of events [patients affected %]” value (from here on “Injury … [patients affected %]”) (Food effect cohort, N=12) was 2 [16·7], the “Musculosceletal and connective tissue disorders (Back pain): number of events [patients affected %]” value (Food effect cohort, N=12) was 0 and the “Nervous system disorders (headache, paraestesia): number of events [patients affected %]” value (“Nervous system disorders … [patients affected %]” for short) (Food effect cohort, N=12) was 3 [25]. The “Psychiatric disorders (abnormal dreams): number of events [patients affected %]” value (“Psychiatric disorders … [patients affected %]” for short) (Food effect cohort, N=12) was 0, the “Number of patients with adverse event(s) [%]” value [1] was 5 [41·7] and the “Number of patients with no adverse event [%]” value [1] was 7 [58·3]. The “Adverse events … Definite, number of events” value (MAD cohorts, N=18) was 0, the “Adverse events by attribution to study treatment: Not related, number of events (%)” value (MAD cohorts, N=18) was 9 (90) and the “Adverse events … Possible, number of events (%)” value (MAD cohorts, N=18) was 1 (10). The “Adverse events … Probable, number of events” value (MAD cohorts, N=18) was 0, the “Adverse events by grade: Mild … (%)” value (MAD cohorts, N=18) was 9 (90) and the “Adverse events by grade: Moderate, number of events (%)” value (MAD cohorts, N=18) was 1 (10). The “Adverse events by outcome … (%)” value (MAD cohorts, N=18) was 10 (100), the “Eye disorders … [patients affected %]” value (MAD cohorts, N=18) was 1 [5·6] and the “Gastrointestinal disorders (diarrhea, nausea): number of events [patients affected %]” value (MAD cohorts, N=18) was 1 [5·6]. For the same compound, the “General disorders and administration site conditions (Chest discomfort, fatigue, medical device site reaction): number of events [patients affected %]” value (MAD cohorts, N=18) was 1 [5·6], the “Infections and infestations (Nasopharyngitis, rhinitis): number of events [patients affected %]” value (MAD cohorts, N=18) was 1 [5·6] and the “Injury … [patients affected %]” value (MAD cohorts, N=18) was 0. For the same compound, the “Musculosceletal and connective tissue disorders (Back pain): number of events [patients affected %]” value (MAD cohorts, N=18) was 2 [11·1], the “Nervous system disorders … [patients affected %]” value (MAD cohorts, N=18) was 4 [16·7] and the “Psychiatric disorders … [patients affected %]” value (MAD cohorts, N=18) was 0. The “Number of patients with adverse event(s) [%]” value [2] was 6 [33·3], the “Number of patients with no adverse event [%]” value [2] was 12 [66·7] and the “Moderate AE” value (MAD part, 100 mg anle138b) was “an episode of back pain”. The “AE considered possibly related to the study medication” value (MAD part, 200 mg anle138b, assessed prior to unblinding) was “one event of headache”, the “Adverse events … Definite, number of events” value (SAD cohorts, N=24) was 0 and the “Adverse events by attribution to study treatment: Not related, number of events (%)” value (SAD cohorts, N=24) was 5 (100). The “Adverse events … Possible, number of events (%)” value (SAD cohorts, N=24) was 0, the “Adverse events … Probable, number of events” value (SAD cohorts, N=24) was 0 and the “Adverse events by grade: Mild … (%)” value (SAD cohorts, N=24) was 5 (100). The “Adverse events by grade: Moderate, number of events (%)” value (SAD cohorts, N=24) was 0, the “Adverse events by outcome … (%)” value (SAD cohorts, N=24) was 5 (100) and the “Eye disorders … [patients affected %]” value (SAD cohorts, N=24) was 1 [4·2]. For the same compound, the “Gastrointestinal disorders (diarrhea, nausea): number of events [patients affected %]” value (SAD cohorts, N=24) was 0, the “General disorders and administration site conditions (Chest discomfort, fatigue, medical device site reaction): number of events [patients affected %]” value (SAD cohorts, N=24) was 0 and the “Infections and infestations (Nasopharyngitis, rhinitis): number of events [patients affected %]” value (SAD cohorts, N=24) was 1 [4·2]. The “Injury … [patients affected %]” value (SAD cohorts, N=24) was 0, the “Musculosceletal and connective tissue disorders (Back pain): number of events [patients affected %]” value (SAD cohorts, N=24) was 1 [4·2] and the “Nervous system disorders … [patients affected %]” value (SAD cohorts, N=24) was 2 [8·3]. The “Psychiatric disorders … [patients affected %]” value (SAD cohorts, N=24) was 0, the “Number of patients with adverse event(s) [%]” value [3] was 4 [16·7] and the “Number of patients with no adverse event [%]” value [3] was 20 [83·3]. For the same compound, the “Tolerability and compound-related side effects” value (all tested doses (up to 300 mg)) was “excellent tolerability and no compound-related side effects” and the “Changes in safety assessments (laboratory values, vital signs, physical examinations, ECG)” value (any subject included in the trial) was “no clinically significant individual changes from baseline or notable trends”.

From publication PMC9065877, “Safety, tolerability and pharmacokinetics of the oligomer modulator anle138b with exposure levels sufficient for therapeutic efficacy in a murine Parkinson model: A randomised, double-blind, placebo-controlled phase 1a trial” (EBioMedicine, 2022)
